pEC50, pIC50: −log10 of the molar value. Several values for one entry are separate records, joined by “and”; a condition that tells them apart may be missing. Identical values can stand only once. One block for each compound: values may come before it.
Experiments:
HIV [1] = test: Reduction of HIV cytopathic effect, CEM-IW protocol; format: cell-based; details: inhibition of viral cytopathic effect, asterisk: CEMIW protocol
Protocol: (§1) The compounds of Examples were tested for anti-AIDS activity by subjecting them to standard National Cancer Institute ("NCI") in vitro screening procedures. In carrying out each test, two blanks were run. In the first blank, HIV and a culture of a standard human cell line were incubated together to measure the infectivity of the virus. The viability of the cells was measured after holding for six or seven days. In an "effective" test, most cells were infected before the holding period was complete.
(§2) Finally, the protective effects of the test compounds were measured. Each cell culture and test compound were incubated with the virus and the viability of the cells was measured as a function of compound concentration after holding for six or seven days. If the compound is active in protecting the cells against the virus, there is typically low cell viability until an effective concentration of the test compound is reached. At this point, cell viability increases steadily toward 100% unless the toxic effect of the compound (as measured in the second blank) takes effect. The concentration of the test compound that results in 50% "control," i.e., a 50% reduction of the viral cytopathic effect, is defined as the EC 50. The therapeutic index TI50 is calculated as IC50/EC50.
(§3) Values of test compound concentrations required for between 20 and 50% reduction of the viral cytopathic effect can also be determined. Such compounds are classified as moderately active.
(§4) The compounds were tested to determine their reduction of HIV cytopathic effect on the human cell lines CEM and MT2. Tests were done by innoculating these cell lines either with free HIV (V) or with a virus Previously cultured with host cells (C). Thus, in Table III the designation CEMV means CEM line cells innoculated with free virus and MT2C means MT2 cells innoculated with cultured viral infected MT2 cells. In some cases the compound was also tested on a cell line together with a sub-effective amount of the known HIV viricide AZT. This is done to test possible synergistic effects. Such a test on the CEM line is denoted CEMZ.
The aforementioned identifiers are used when a batch was prepared and samples inserted into the wells. In procedures calling for the addition of the drug (or no drug) and the CEM uninfected cells to each well, followed by the subsequent addition of the HIV virus, the protocol is designated as CEM-IW.
(§5) 4) The tetrazolium salt, XTT, is added to all wells, and cultures are incubated to allow formazan color development by viable cells.
(§6) 5) Individual wells are analyzed spectrophotometrically to quantity formazan production, and in addition are viewed microscopically for detection of viable cells and confirmation of protective activity.
(§7) 6) Drug-treated virus-infected cells are compared with drug-treated non-infected cells and with other appropriate controls (untreated infected and untreated non-infected cells, drug-containing wells without cells, etc.) on the same plate.
Asterisks indicate the CEMIW protocol.

HIV [2] = test: Reduction of HIV cytopathic effect, CEM-6 (CEMV test, six days); format: cell-based; details: inhibition of viral cytopathic effect, CEM cells, 8640 min
Protocol: as §1, §2, §3, §4
(§8) 1) T4 lymphocytes (CEM cell line) are exposed to HIV at a virus to cell ratio of approximately 0.05 and plated along with non-infected control cells in 96-well microtiter plates.
(§9) 2) Each candidate agent is dissolved in dimethyl sulfoxide (unless otherwise indicated), then diluted 1:200 in cell culture medium. Further dilutions (five-fold) are prepared before adding to an equal volume of medium containing either infected or noninfected cells.
(§10) 3) Cultures are incubated at 37° C. in a 5% carbon dioxide atmosphere for seven days (if six days the CEMV test is identified as CEM-6).
as §5, §6, §7

[3] = tested on: succinate dehydrogenase complex; details: mitochondria from Ustilago maydis, White et al. (1978); cited from earlier work
HIV [4] = test: Reduction of HIV cytopathic effect, MT2V (MT2 cells, free virus); format: cell-based; details: Human immunodeficiency virus 1, read-out: Activity of Anti-HIV Compounds (EC50), MT2V
Protocol: as §1
(§11) In the second blank, the cell line culture and the compound being tested (but not virus) were incubated together to measure the toxicity of the drug to the cellline. The viability of the cells was measured as a function of concentration of the compound, after holding for seven days. […]
(§12) Finally, the protective effects of the test compounds were measured. Each cell culture and test compound were incubated with the virus and the viability of the cells was measured as a function of compound concentration after holding for six or seven days. […] At this point, cell viability increases steadily toward 100% unless the toxic effect of the compound (as measured in the second blank) takes effect. […] The therapeutic index TI50 is calculated as IC50/EC50.
(§13) Values of test compound concentrations required for between 20 and 50% reduction of the viral cytopathic effect can also be determined. […]

HIV [5] = test: microbe, parasite or virus in culture; format: cell-based
Protocol: as §1
(§14) In the second blank, the cell line culture and the compound being tested (but not virus) were incubated together to measure the toxicity of the drug to the cellline. The viability of the cells was measured as a function of concentration of the compound, after holding for seven days. Typically, the cells survive at low compound concentrations, but at some higher concentration, toxicity of the compound is manifested and the cells die. The concentration of the test compound that results in 50% inhibition of cell growth is defined as the IC50.
as §2, §3, §4, §8, §9, §10, §5, §6, §7
7) A determination of activity is made. […]

HIV [6] = test: Reduction of HIV cytopathic effect, MT2C (MT2 cells inoculated with cultured virus-infected MT2 cells); format: cell-based
Protocol: as §1, §11, §12, §13

HIV [7] = test: Reduction of HIV cytopathic effect, CEMC (CEM cells, virus previously cultured with host cells); format: cell-based; details: for pEC50: Human immunodeficiency virus 1, CCRF-CEM, read-out: Activity of Anti-HIV Compounds (EC50), CEMC
Protocol: as §1, §14
as §2, with “The concentration of the test compound that results in 50% "control," i.e., a 50% reduction of the viral cytopathic effect, is defined as the EC 50.” left out
as §13
5) Individual wells are analyzed spectrophotometrically to quantity formazan production, and in addition are viewed microscopically for detection of viable cells and confirmation of protective activity. […]

HIV [8] = test: Reduction of HIV cytopathic effect, CEMZ (CEM line with sub-effective amount of AZT); format: cell-based; details: CEM cells, read-out: Activity of Anti-HIV Compounds (EC50), CEMZ
Protocol: as §1, §14, §2, §3, §4

[9] = Toxicity of test compound to uninfected CEM cell line (growth inhibition); format: cell-based, human; details: human, cem cells, read-out: UNINFECTED CULTURE Response (%)
Protocol: as §14, §8, §9, §10, §5, §6, §7
(§15) The compound of Example 3, viz., methyl 2-chloro-5-[[(5,6-dihydro-2-methyl-1,4-oxathiin-3-yl)carbonyl]amino]benzoate, was tested against the H9/HTLV-IIIB (HIV-I) virus employing the CEM line of host cells and using free virus innoculation (denoted CEM-V). […] All concentrations are expressed in moles per liter.
(§16) The dashed line connecting the square symbols depicts the percentage of surviving uninfected cells treated with the sample relative to the same uninfected, untreated controls. This line expresses the in-vitro growth inhibitory properties of the sample and represents the second blank test.

CEM cells = test: as above; format: cell-based, human; details: Homo sapiens, CCRF-CEM; CEM cells, uninfected, Table III; read-out: IC50 (50% inhibition of cell growth)
Protocol: as §14, §8, §9, §10, §5, §6, §7, §15, §16

HIV [10] = test: HIV antiviral activity with addition delayed after infection; format: cell-based
[11] = CEM cells, free HIV, read-out: Activity of Anti-HIV Compounds (EC50), CEMV
[12] = Human immunodeficiency virus 1, CCRF-CEM
[13] = Human immunodeficiency virus 1, CCRF-CEM, CEM cells, free HIV, read-out: Activity of Anti-HIV Compounds (EC50), CEMV

SMILES: COCCOCCOC(=O)c1cc(NC(=O)C2=C(C)OCCS2)ccc1Cl [Compound 78, 2-(2-Methoxyethoxy)ethyl 2-chloro-5-[[(5,6-dihydro-2-methyl-1,4-oxathiin-3-yl)carbonyl]amino]benzoate]
Activity class of Anti-HIV Compounds, CEM-IW (HIV [1]): MA (moderate activity (MA), that is, inhibition between approximately 20 and 50%)
Activity class of Anti-HIV Compounds, CEM-6 (HIV [2]): MA (moderate activity (MA), that is, inhibition between approximately 20 and 50%)

SMILES: COC(=O)c1cccc(NC(=O)C2=C(C)OCCS2)c1 [methyl 3-[[(5,6-dihydro-2-methyl-1,4-oxathiin-3-yl)carbonyl]amino]benzoate, reference compound]
inhibition of succinate dehydrogenase complex [3]: inhibitors of succinate dehydrogenase complex

SMILES: CC1=C(C(=O)Nc2cc(C(=O)OC(C)C)c(Cl)cc2F)SCCO1 [Compound 2, 1-Methylethyl 2-chloro-5-[[(5,6-dihydro-2-methyl-1,4-oxathiin-3-yl)carbonyl]amino]-4-fluorobenzoate]
pEC50 (HIV [4]): 4.84
pEC50 (HIV [5]; [11]): 5.89
pEC50 (HIV [6]; Human immunodeficiency virus 1, MT2, MT2 cells inoculated with cultured viral infected MT2 cells, read-out: Activity of Anti-HIV Compounds (EC50), MT2C): 5.49
pEC50 (HIV [7]): 5.46
pEC50 (HIV [8]; [12]): 5.74

SMILES: Cc1nc(C)c(C(=O)Nc2ccc(Cl)c(C(=O)OC(C)C)c2)s1 [Compound 94]
Activity class of Anti-HIV Compounds, CEM-IW (HIV [1]): MA (moderate activity (MA), that is, inhibition between approximately 20 and 50%)
Activity class of Anti-HIV Compounds, CEM-6 (HIV [2]): MA (moderate activity (MA), that is, inhibition between approximately 20 and 50%)

SMILES: CC1=C(C(=O)Nc2ccc(Cl)cc2)SCCS1 [Compound 26, N-(4-Chlorophenyl)-5,6-dihydro-3-methyl-1,4-dithiin-2-carboxamide]
Activity class of Anti-HIV Compounds, MT2C (HIV [6]; inhibition of viral cytopathic effect, MT2 cells, cultured virus): MA (moderate activity (MA), that is, inhibition between approximately 20 and 50%)
pEC50 (HIV [7]): 4.45

SMILES: CCOC(=O)c1cccc(NC(=O)C2=C(C)OCCS2)c1 [Compound 8, Ethyl 3-[[(5,6-dihydro-2-methyl-1,4-oxathiin-3-yl)carbonyl]amino]benzoate]
inhibition of succinate dehydrogenase complex [3]: inhibitors of succinate dehydrogenase complex
Activity class of Anti-HIV Compounds, CEMC (HIV [7]; inhibition of viral cytopathic effect): MA (moderate activity (MA), that is, inhibition between approximately 20 and 50%)

Further lines, with some results ahead:

pEC50 (HIV [8]; [12]): 4.92
SMILES: CCCOC(=O)c1cc(NC(=O)c2ccccc2C)ccc1Cl [Compound 24, Propyl 2-chloro-5-[(2-methylbenzoyl)amino]benzoate]

pEC50 (HIV [5]; [11]): 5.25
pEC50 (HIV [5]; [13]): 5.24
pEC50 (HIV [8]; [12]): 5.96
SMILES: Cc1ccccc1C(=O)Nc1ccc(Cl)c(C(=O)OC(C)C)c1 [Compound 23, 1-Methylethyl 2-chloro-5-[(2-methylbenzoyl)amino]benzoate]

pEC50 (HIV [5]; Human immunodeficiency virus 1, IIIB, CEM-V, H9/HTLV-IIIB (HIV-I), Table III, read-out: EC50 (50% reduction in the viral cytopathic effect)): 5.72
SMILES: COC(=O)c1cc(NC(=O)C2=C(C)OCCS2)ccc1Cl [Compound 3, Methyl 2-chloro-5-[[(5,6-dihydro-2-methyl-1,4-oxathiin-3-yl)carbonyl]amino]benzoate]
concentration of maximum effect (HIV [5]; CEM-V, Figure I, point 6): about 1.7×10^-5 molar
CONCLUSION (HIV [5]; CEM-V, Table III): ACTIVE
viability at 172 µM (HIV [5]; Human immunodeficiency virus 1, CCRF-CEM, 1.72 × 10^-4 Molar, read-out: INFECTED CULTURE Response (%)): 10.7%
viability at 17.2 µM (HIV [5]; Human immunodeficiency virus 1, CCRF-CEM, 1.72 × 10^-5 Molar, read-out: INFECTED CULTURE Response (%)): 89.2%
viability at 0.172 µM (HIV [5]; Human immunodeficiency virus 1, CCRF-CEM, 1.72 × 10^-7 Molar, read-out: INFECTED CULTURE Response (%)): 23.3%
viability at 54.4 µM (HIV [5]; Human immunodeficiency virus 1, CCRF-CEM, 5.44 × 10^-5 Molar, read-out: INFECTED CULTURE Response (%)): 86.1%
viability at 5.45 µM (HIV [5]; Human immunodeficiency virus 1, CCRF-CEM, 5.45 × 10^-6 Molar, read-out: INFECTED CULTURE Response (%)): 78.8%
viability at 0.546 µM (HIV [5]; Human immunodeficiency virus 1, CCRF-CEM, 5.46 × 10^-7 Molar, read-out: INFECTED CULTURE Response (%)): 15.7%
viability at 0.0547 µM (HIV [5]; Human immunodeficiency virus 1, CCRF-CEM, 5.47 × 10^-8 Molar, read-out: INFECTED CULTURE Response (%)): 15.3%
minimal effective concentration (HIV [5]; Human immunodeficiency virus 1, CEM-V, Figure I, point 5, read-out: concentration at which the compound began to show inhibition of the viral cytopathic effect): ~0.55 µM
viability at 168 h, 172 µM ([9]; 1.72 × 10^-4 Molar): 10.1%
viability at 168 h, 17.2 µM ([9]; 1.72 × 10^-5 Molar): 95.7%
viability at 168 h, 1.72 µM ([9]; 1.72 × 10^-6 Molar): 84.6%
viability at 168 h, 0.172 µM ([9]; 1.72 × 10^-7 Molar): 86.8%
viability at 168 h, 54.4 µM ([9]; 5.44 × 10^-5 Molar): 97%
viability at 168 h, 5.45 µM ([9]; 5.45 × 10^-6 Molar): 108%
viability at 168 h, 0.546 µM ([9]; 5.46 × 10^-7 Molar): 84%
viability at 168 h, 0.0547 µM ([9]; 5.47 × 10^-8 Molar): 86.8%
pIC50 (CEM cells): 4.00
protection with delayed addition (HIV [10]; delays of up to twenty hours): delays of up to twenty hours will still offer some protection
full HIV antiviral activity after infection (HIV [10]; up to eight hours after infection): full HIV antiviral activity for up to eight hours after infection

pEC50 (HIV [8]; [12]): 6.05
SMILES: Cc1oc(C)c(C(=O)Nc2ccc(Cl)c(C(=O)OC(C)C)c2)c1C [Compound 16, 1-Methylethyl 2-chloro-5-[[(2,4,5-trimethyl-3-furanyl)carbonyl]amino]benzoate]

pEC50 (HIV [5]; [13]): 5.48
pEC50 (HIV [8]; [12]): 5.10
SMILES: Cc1ccoc1C(=O)Nc1ccc(Cl)c(C(=O)OC(C)C)c1 [Compound 17, 1-Methylethyl 2-chloro-5-[[(3-methyl-2-furanyl)carbonyl]amino]benzoate]

pEC50 (HIV [8]): 4.46 and 4.40
SMILES: CC(C)OC(=O)c1cc(NC(=O)c2ccccc2F)ccc1Cl [Compound 25, 1-Methylethyl 2-chloro-5-[(2-fluorobenzoyl)amino]benzoate]

From patent US5268389A, “Thiocarboxylate ester compounds compositions containing the same” (priority 1990, dated 1993)
